Experimental data: PubChem BioAssay (NCI)
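Dose response: 5 concentrations. Exposure: 48 h. Format: 96-well plates. Endpoint: linear interpolation; highest concentration if not reached. At the TGI there is no net growth.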

Tests used:
Test in all cases: NCI tumour cell line growth inhibition, 48 h
[1] = tested on: OVCAR-5 ovarian
[2] = tested on: RPMI-8226 leukemia
[3] = tested on: OVCAR-4 ovarian
[4] = tested on: SF-295 CNS
[5] = tested on: SN12C renal
[6] = tested on: EKVX NSCLC
[7] = tested on: SNB-19 CNS
[8] = tested on: KM12 colon
[9] = tested on: K-562 leukemia
[10] = tested on: SF-268 CNS
[11] = tested on: HOP-62 NSCLC
[12] = tested on: A549 NSCLC
[13] = tested on: 786-0 renal
[14] = tested on: HCT-15 colon
[15] = tested on: XF 498 CNS
[16] = tested on: HT29 colon
[17] = tested on: UACC-257 melanoma
[18] = tested on: OVCAR-8 ovarian
[19] = tested on: HCT-116 colon
[20] = tested on: SK-MEL-2 melanoma
[21] = tested on: SR leukemia
[22] = tested on: NCI-H460 lung
[23] = tested on: COLO 205 colon
[24] = tested on: LOX IMVI melanoma
[25] = tested on: SK-MEL-5 melanoma
[26] = tested on: HL-60(TB) leukemia
[27] = tested on: SW-620 colon
[28] = tested on: SK-MEL-28 melanoma
[29] = tested on: HCC-2998 colon
[30] = tested on: OVCAR-3 ovarian
[31] = tested on: M14 melanoma
[32] = tested on: CCRF-CEM leukemia
[33] = tested on: MOLT-4 leukemia
[34] = tested on: SNB-75 CNS
[35] = tested on: DMS 273 small cell lung
[36] = tested on: UO-31 renal
[37] = tested on: MALME-3M melanoma
[38] = tested on: TK-10 renal
[39] = tested on: DMS 114 small cell lung
[40] = tested on: ACHN renal
[41] = tested on: NCI-H226 lung
[42] = tested on: NCI-H522 lung
[43] = tested on: HOP-18 NSCLC
[44] = tested on: CAKI-1 renal
[45] = tested on: SF-539 CNS

`c1cnc2c(c1)-n1cccc1C1(CCCCC1)NN2` showed a TGI [1] greater than 100 µM, a TGI [2] greater than 100 µM and a TGI [3] greater than 100 µM. For the same compound, the TGI [4] was greater than 100 µM, the TGI [5] was greater than 100 µM and the TGI [6] was greater than 100 µM. For the same compound, the TGI [7] was greater than 100 µM, the TGI [8] was greater than 100 µM and the TGI [9] was greater than 100 µM. For the same compound, the TGI [10] was greater than 100 µM, the TGI [11] was greater than 100 µM and the TGI [12] was greater than 100 µM. It also gave a TGI [13] greater than 100 µM, a TGI [14] greater than 100 µM and a TGI [15] greater than 100 µM. For the same compound, the TGI [16] was greater than 100 µM, the TGI [17] was greater than 100 µM and the TGI [18] was greater than 100 µM. The TGI [19] was greater than 100 µM, the TGI [20] was greater than 100 µM and the TGI [21] was greater than 100 µM. It also gave a TGI [22] greater than 100 µM, a TGI [23] greater than 100 µM and a TGI [24] greater than 100 µM. The TGI [25] was greater than 100 µM, the TGI [26] was greater than 100 µM and the TGI [27] was greater than 100 µM. It also gave a TGI [28] greater than 100 µM, a TGI [29] greater than 100 µM and a TGI [30] greater than 100 µM. For the same compound, the TGI [31] was greater than 100 µM, the TGI [32] was greater than 100 µM and the TGI [33] was greater than 100 µM. It also gave a TGI [34] greater than 100 µM, a TGI [35] greater than 100 µM and a TGI [36] of 79.9 µM. For the same compound, the TGI [37] was greater than 100 µM, the TGI [38] was greater than 100 µM and the TGI [39] was greater than 100 µM. For the same compound, the TGI [40] was greater than 100 µM, the TGI [41] was greater than 100 µM and the TGI [42] was greater than 100 µM. For the same compound, the TGI [43] was greater than 100 µM, the TGI [44] was greater than 100 µM and the TGI [45] was greater than 100 µM.
